# According to patent US20250144223A1, “PROTEIN DEGRADATION COMPOUND BASED ON NAMPT TARGET PROTEIN AND APPLICATION THEREOF” (GLUETACS THERAPEUTICS (SHANGHAI) CO., LTD., priority 2021, published 2025):
# What was measured:
# HL60 tumor cells = experiment: In vitro cytotoxicity assay against tumor cells (DAPI staining, flow cytometry); format: cell-based; settings: 10 nM, 4th day
# Protocol: The tumor cells used herein were cultured in a cell culture medium at 37° C. in an incubator with 5% CO2, where the cell culture medium was supplemented with 10% FBS, as well as penicillin at a final concentration of 100 U/mL and streptomycin at a final concentration of 100 μg/mL. Prior to experimentation, all cells used were identified as correct cells by STR cells, and were negative for mycoplasma through routine testing.
# MOLT4 and HL60 tumor cells were seeded separately in 12-well plates containing 1 mL of RPMI1640 medium, with a cell seeding density of 0.5×10^6 cells/mL. On the second day, the parent inhibitor FK866 and the compounds SIAIS630120 and SIAIS630121 of the present disclosure were individually dissolved in DMSO to obtain stock solutions of the respective compounds at a concentration of 10 μM. Subsequently, 1 μL of the 10 μM compound stock solution was added to 1 mL of cell culture medium to achieve a final concentration of 10 nM. The cells were treated continuously for 4 days, and cell viability was measured once daily during this period. Specifically, cells were sampled once a day, adjusted to a concentration of 1×10^6/mL using a cell staining buffer, stained with 4′,6-diamidino-2-phenylindole dihydrochloride (DAPI) (1:250), and then analyzed with a flow cytometer. Initially, the cells were gated based on differences in cell size, followed by DAPI staining to gate for dead cells. Finally, the cytotoxic efficiency was assessed by calculating the DAPI-positive ratio.
# [1] = clinical trial results; cited from earlier work
# [2] = biological target: T1, extracellular NAMPT (eNAMPT) (Homo sapiens, UniProt P43490); experiment: Western blot, eNAMPT protein degradation in HL60 and MOLT4 cell lines; format: cell-based
# T1 construct: degradation effects of compounds SIAIS630120 and SIAIS630121 of the present disclosure on eNAMPT protein in HL60 and MOLT4 cell lines; endogenous in cells; host or cells: HL60, MOLT4
# Protocol: (§1) The tumor cells used herein were cultured in a cell culture medium at 37° C. in an incubator with 5% CO2, where the cell culture medium was supplemented with 10% FBS, as well as penicillin at a final concentration of 100 U/mL and streptomycin at a final concentration of 100 μg/mL.
# (§2) Tumor cells were seeded at a specific cell density in a 6-well plate containing 2 mL of RPMI1640/DMEM medium. For SW620, HT29, MCF-7, and BEL7404 cells, the seeding density was 1×10^6 cells per well, respectively; for MOLT4, Jurkat, and HL60 cells, the seeding density was 0.5×10^6 cells/mL. […] After 24 hours of compound treatment, the supernatant was removed, and cells were washed with PBS. The cells were then placed on ice and treated with protein lysis buffer containing protease and phosphatase inhibitors. The lysate was centrifuged at 12,000 RPM for 15 minutes at 4° C., and the supernatant was collected. Equal amounts of protein were mixed with 5×SDS, and after denaturation at 95° C. for 5 minutes, the samples were either frozen at −20° C. or subjected to direct protein electrophoresis. SDS-PAGE was performed using equal amounts of protein, and proteins were transferred to a nitrocellulose membrane at 95 V and 4° C. for 90 minutes. After membrane transfer, the membrane was blocked with TBST containing 5% skim milk powder (purchased from Beijing Cowin Bioscience Co., Ltd.) at room temperature for 1 hour. […]
# hematological tumors = settings: animal models; cited from earlier work
# [3] = biological target: T2, intracellular NAMPT (iNAMPT) (Homo sapiens, UniProt P43490); experiment: Western blot, NAMPT protein degradation (DC50) in SW620, HT29, MCF-7, BEL7404, MOLT4, Jurkat and HL60 cells; format: cell-based; settings: tumor cells, 24 h
# T2 construct: assess the expression levels of NAMPT protein in tumor cells treated with the compounds of the present disclosure; endogenous in cells; host or cells: SW620, HT29, MCF-7, BEL7404, MOLT4, Jurkat, HL60
# Protocol: as §1, §2
# Jurkat = experiment: CellTiter-Glo Luminescent Cell Viability Assay, half inhibitory concentration (IC50) on tumor cell proliferation; format: cell-based; settings: Homo sapiens, Jurkat cells, 72 h treatment
# Outline: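 Jurkat cells seeded at 20,000 cells/well in serum-containing RPMI1640, treated after 24 h with serially diluted compound for 72 h at 37 °C, 5% CO2. Viability read by CellTiter-Glo luminescence; IC50 calculated from growth-inhibition curves.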
# T1 sequence (P43490 whole entry): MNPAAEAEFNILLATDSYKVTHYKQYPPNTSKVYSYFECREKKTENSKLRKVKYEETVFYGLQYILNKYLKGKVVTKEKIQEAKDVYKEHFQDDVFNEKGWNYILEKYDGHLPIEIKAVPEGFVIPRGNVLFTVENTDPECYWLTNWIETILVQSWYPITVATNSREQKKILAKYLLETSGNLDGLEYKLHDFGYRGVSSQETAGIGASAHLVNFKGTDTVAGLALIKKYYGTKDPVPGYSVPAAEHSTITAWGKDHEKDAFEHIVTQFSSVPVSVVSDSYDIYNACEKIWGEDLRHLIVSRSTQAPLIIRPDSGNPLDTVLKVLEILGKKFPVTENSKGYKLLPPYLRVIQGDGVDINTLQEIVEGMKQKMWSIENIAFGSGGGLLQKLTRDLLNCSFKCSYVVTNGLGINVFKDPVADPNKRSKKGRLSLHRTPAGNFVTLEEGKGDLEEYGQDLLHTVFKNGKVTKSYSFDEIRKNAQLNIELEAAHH
# T2 sequence (P43490 whole entry): as above
smiles,measurement,setting,value
O=C(/C=C/c1cccnc1)NCCCCC1CCN(C(=O)c2ccccc2)CC1 [FK866],cytotoxic effect (DAPI-positive ratio),HL60 tumor cells,less than 40%
same,toxicities in clinical trial,[1],dose-limiting toxicities such as thrombocytopenia
same,degradation of extracellular NAMPT (eNAMPT) protein,"[2]; 24 h, Western blot",cannot degrade iNAMPT and eNAMPT proteins
same,eNAMPT protein level compared to the DMSO control group,"[2]; MOLT4 cells, 10 nM, FIG. 5",higher levels of eNAMPT protein
same,long-term survival of mice,hematological tumors,80%
same,degradation of intracellular NAMPT (iNAMPT) protein,[3],cannot degrade iNAMPT and eNAMPT proteins
same,IC50,Jurkat,635 pM
